Experimental data reported in patent US20260022143A1, “Cyclic Peptide Inhibitors of IL-23” (JANSSEN PHARMACEUTICA NV, priority 2022, published 2026).
Positions of bridges follow the written chain, without caps; N, C: chain ends. Non-standard residues stand in square brackets, D forms with d. Residues, ends and D or L forms follow the SMILES beside them. *: point of attachment. Me3N+(CH2)2O(CH2)2O(CH2)2CO = C[N+](C)(C)CCOCCOCCC(=O)*; CH2CH2OCH2CH2OCH2CH2NMe3+ = C[N+](C)(C)CCOCCOCC*; Trp(7-Me) = Cc1cccc2c(C[C@H](N)C(=O)O)c[nH]c12; dLys(Me3) = C[N+](C)(C)CCCC[C@@H](N)C(=O)O; 3Pal(5-Me) = Cc1cncc(C[C@H](N)C(=O)O)c1; 2Nal = N[C@@H](Cc1ccc2ccccc2c1)C(=O)O; AEF = NCCOc1ccc(C[C@H](N)C(=O)O)cc1; 3Pal = N[C@@H](Cc1cccnc1)C(=O)O; Lys(Me) = CNCCCC[C@H](N)C(=O)O; Pen = CC(C)(S)[C@H](N)C(=O)O; Thp = NC1(C(=O)O)CCOCC1; X3 = C[N+](C)(C)CCCCC*; Sar = CNCC(=O)O

Columns and labels:
[1] = biological target: T1, IL-23R (Homo sapiens, UniProt Q5VWK5); assay: IL23R Reporter Assay; assay type: cell-based; details: HEK293 cells containing IL-23R, IL-12RP1 and STAT-inducible firefly luciferase reporter; 10 ng/mL IL-23 (EC90); 5 h at 37° C.; read-out: IL23R Reporter Assay
T1 construct: host or cells: HEK293
T1 sequence (Q5VWK5 24-629): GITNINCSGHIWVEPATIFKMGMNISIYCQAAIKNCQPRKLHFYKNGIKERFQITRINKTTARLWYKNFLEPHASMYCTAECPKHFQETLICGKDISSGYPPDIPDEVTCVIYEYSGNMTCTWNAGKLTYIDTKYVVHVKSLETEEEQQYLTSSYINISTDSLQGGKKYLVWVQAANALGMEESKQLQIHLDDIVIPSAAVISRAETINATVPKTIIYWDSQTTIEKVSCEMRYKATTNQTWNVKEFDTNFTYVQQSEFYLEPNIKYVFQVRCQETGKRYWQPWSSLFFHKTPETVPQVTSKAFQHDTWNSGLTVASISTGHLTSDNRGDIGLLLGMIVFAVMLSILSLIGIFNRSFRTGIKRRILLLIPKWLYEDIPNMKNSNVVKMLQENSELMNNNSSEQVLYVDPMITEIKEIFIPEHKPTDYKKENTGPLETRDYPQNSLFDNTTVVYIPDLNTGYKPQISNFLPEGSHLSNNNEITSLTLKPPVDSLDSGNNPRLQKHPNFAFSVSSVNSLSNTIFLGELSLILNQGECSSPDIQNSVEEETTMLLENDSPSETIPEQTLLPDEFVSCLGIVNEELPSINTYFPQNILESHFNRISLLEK

[2] = Exposed Polar Surface Area (EPSA); assay type: physicochemical; details: SFC on Chirex 3014 column; sample 1 mM DMSO stock; read-out: EPSA
Method in brief: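 EPSA, in Å^2, is read from SFC retention time through a linear relationship established with eight calibration standards. Separation uses a Chirex 3014 stationary phase, 35 °C, 14 MPa back pressure, and a 5–60% methanol/ammonium formate modifier gradient in CO2.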

| SMILES | IC50 [1] | EPSA [2] |
| --- | --- | --- |
| CC(=O)NCCCC[C@@H]1NC(=O)[C@H](Cc2c[nH]c3c(C)cccc23)NC(=O)[C@H]([C@@H](C)O)NC(=O)[C@H](CC(N)=O)NC(=O)[C@@H](NC(C)=O)C(C)(C)SSC(C)(C)[C@@H](C(=O)N[C@@H](Cc2ccc(OCCCCC[N+](C)(C)C)cc2)C(=O)N[C@@H](Cc2ccc3ccccc3c2)C(=O)NC2(C(=O)N[C@@H](CCCCNC(C)=O)C(=O)N[C@@H](CC(N)=O)C(=O)N[C@@H](Cc3cccnc3)C(=O)N(C)CC(N)=O)CCCCC2)NC1=O [compound 538, MeCO-Pen(3)-N-T-7MeW-K(Ac)-Pen(3)-TMAPF-2Nal-Achx-K(Ac)-N-3Pya-Sar-CONH2] | 3.5 nM | 163 A^2 |
| CC(=O)N(C)CCCC[C@@H]1NC(=O)[C@H](C)NC(=O)[C@H]([C@@H](C)O)NC(=O)[C@H](CC(=O)N(C)C)NC(=O)[C@@H](NC(=O)CCOCCOCC[N+](C)(C)C)C(C)(C)SSC(C)(C)[C@@H](C(=O)N[C@@H](Cc2ccc(OCCOCCOCC[N+](C)(C)C)cc2)C(=O)N[C@@H](C)C(=O)NC2(C(=O)N[C@@H](CCCCN(C)C(C)=O)C(=O)N[C@@H](CC(N)=O)C(=O)N[C@@H](Cc3cccnc3)C(=O)N(C)CC(=O)N(C)C)CCOCC2)NC1=O [compound 557, cPEG3aCO-Pen(3)-N(N(Me)2)-T-A-K(NMeAc)-Pen(3)-APEG3F-A-THP-K(NMeAc)-N-3Pya-Sar-CON(Me)2] ({Me3N+(CH2)2O(CH2)2O(CH2)2CO}-[Pen]D(NMe2)TA[Lys(Me)](Ac)[Pen]Y(CH2CH2OCH2CH2OCH2CH2NMe3+)A[Thp][Lys(Me)](Ac)N[3Pal][Sar]-NMe2; disulfide 1-6) | > 16600 nM | 139 A^2 |
| CC(=O)NCCCC[C@@H]1NC(=O)[C@H](Cc2c[nH]c3c(C)cccc23)NC(=O)[C@H]([C@@H](C)O)NC(=O)[C@H](CC(N)=O)NC(=O)[C@@H](NC(=O)[C@@H](CCCNC(=N)N)NC(C)=O)C(C)(C)SSC(C)(C)[C@@H](C(=O)N[C@@H](Cc2ccc(OCCCCC[N+](C)(C)C)cc2)C(=O)N[C@@H](Cc2ccc3ccccc3c2)C(=O)NC2(C(=O)N[C@@H](CCCCNC(C)=O)C(=O)N[C@@H](CC(N)=O)C(=O)N[C@@H](Cc3cccnc3)C(=O)N(C)CC(N)=O)CCOCC2)NC1=O [compound 558, MeCO-r-Pen(3)-N-T-7MeW-K(Ac)-Pen(3)-TMAPF-2Nal-THP-K(Ac)-N-3Pya-Sar-CONH2] (Ac-[dR][Pen]NT[Trp(7-Me)]K(Ac)[Pen]Y(X3)[2Nal][Thp]K(Ac)N[3Pal][Sar]-NH2; disulfide 2-7) | 4.1 nM | 174 A^2 |
| CNC(=O)C[C@H](NC(=O)[C@H](CCCCN(C)C(C)=O)NC(=O)C1(NC(=O)[C@H](Cc2ccc3ccccc3c2)NC(=O)[C@H](Cc2ccc(OCCCCC[N+](C)(C)C)cc2)NC(=O)[C@H]2NC(=O)[C@H](CCCCN(C)C(C)=O)NC(=O)[C@H](Cc3c[nH]c4c(C)cccc34)NC(=O)[C@H]([C@@H](C)O)NC(=O)[C@H](CC(=O)N(C)C)NC(=O)[C@@H](NC(=O)CCOCCOCC[N+](C)(C)C)C(C)(C)SSC2(C)C)CCOCC1)C(=O)N[C@@H](Cc1cccnc1)C(=O)N(C)CC(=O)N(C)C [compound 560, cPEG3aCO-Pen(3)-N(N(Me)2)-T-7MeW-K(NMeAc)-Pen(3)-TMAPF-2Nal-THP-k(NMeAc)-N(NMe)-3Pya-Sar-CON(Me)2] ({Me3N+(CH2)2O(CH2)2O(CH2)2CO}-[Pen]D(NMe2)T[Trp(7-Me)][Lys(Me)](Ac)[Pen]Y(X3)[2Nal][Thp][Lys(Me)](Ac)D(NHMe)[3Pal][Sar]-NMe2; disulfide 1-6) | 3.4 nM | 154 A^2 |

Continued by falling IC50 [1], values first:

| IC50 [1] | EPSA [2] | SMILES |
| --- | --- | --- |
| 7.2 nM | 168 A^2 | CC(=O)NCCCC[C@@H]1NC(=O)[C@H](Cc2c[nH]c3c(C)cccc23)NC(=O)[C@H]([C@@H](C)O)NC(=O)[C@H](CC(N)=O)NC(=O)[C@@H](NC(C)=O)C(C)(C)SSC(C)(C)[C@@H](C(=O)N[C@@H](Cc2ccc(OCCCCC[N+](C)(C)C)cc2)C(=O)N[C@@H](Cc2ccc3ccccc3c2)C(=O)NC2(C(=O)N[C@@H](CCCCNC(=O)CCCCCc3ccc(I)cc3)C(=O)N[C@@H](CC(N)=O)C(=O)N[C@@H](Cc3cccnc3)C(=O)N(C)CC(N)=O)CCOCC2)NC1=O [compound 546, MeCO-Pen(3)-N-T-7MeW-K(Ac)-Pen(3)-TMAPF-2Nal-THP-K(IPB)-N-3Pya-Sar-CONH2] |
| 4.6 nM | 168 A^2 | CC(=O)NCCCC[C@@H]1NC(=O)[C@H](Cc2c[nH]c3c(C)cccc23)NC(=O)[C@H]([C@@H](C)O)NC(=O)[C@H](CC(N)=O)NC(=O)[C@@H](NC(=O)CCCc2ccc(I)cc2)C(C)(C)SSC(C)(C)[C@@H](C(=O)N[C@@H](Cc2ccc(OCCCCC[N+](C)(C)C)cc2)C(=O)N[C@@H](Cc2ccc3ccccc3c2)C(=O)NC2(C(=O)N[C@@H](CCCCNC(C)=O)C(=O)N[C@@H](CC(N)=O)C(=O)N[C@@H](Cc3cccnc3)C(=O)N(C)CC(N)=O)CCOCC2)NC1=O [compound 547, IPBCO-Pen(3)-N-T-7MeW-K(Ac)-Pen(3)-TMAPF-2Nal-THP-K(Ac)-N-3Pya-Sar-CONH2] |
| 2.1 nM | 172 A^2 | CC(=O)NCCCC[C@@H]1NC(=O)[C@H](Cc2c[nH]c3c(C)cccc23)NC(=O)[C@H]([C@@H](C)O)NC(=O)[C@H](CC(N)=O)NC(=O)[C@@H](NC(=O)[C@@H](CCCC[N+](C)(C)C)NC(C)=O)C(C)(C)SSC(C)(C)[C@@H](C(=O)N[C@@H](Cc2ccc(OCCCCC[N+](C)(C)C)cc2)C(=O)N[C@@H](Cc2ccc3ccccc3c2)C(=O)NC2(C(=O)N[C@@H](CCC(=O)O)C(=O)N[C@@H](CC(N)=O)C(=O)N[C@@H](Cc3cncc(C)c3)C(=O)N(C)CC(N)=O)CCOCC2)NC1=O [compound 534, MeCO-k(Me)3-Pen(3)-N-T-7MeW-K(Ac)-Pen(3)-TMAPF-2Nal-THP-E-N-5MePyridinAla-Sar-CONH2] (Ac-[dLys(Me3)][Pen]NT[Trp(7-Me)]K(Ac)[Pen]Y(X3)[2Nal][Thp]EN[3Pal(5-Me)][Sar]-NH2; disulfide 2-7) |
| 2 nM | 179 A^2 | CC(=O)NCCCC[C@@H]1NC(=O)[C@H](Cc2c[nH]c3c(C)cccc23)NC(=O)[C@H]([C@@H](C)O)NC(=O)[C@H](CC(N)=O)NC(=O)[C@@H](NC(=O)[C@@H](CCCNC(=N)N)NC(C)=O)C(C)(C)SSC(C)(C)[C@@H](C(=O)N[C@@H](Cc2ccc(OCCCCC[N+](C)(C)C)cc2)C(=O)N[C@@H](Cc2ccc3ccccc3c2)C(=O)NC2(C(=O)N[C@@H](CCC(=O)O)C(=O)N[C@@H](CC(N)=O)C(=O)N[C@@H](Cc3cncc(C)c3)C(=O)N(C)CC(N)=O)CCOCC2)NC1=O [compound 543, MeCO-r-Pen(3)-N-T-7MeW-K(Ac)-Pen(3)-TMAPF-2Nal-THP-E-N-5MePyridinAla-Sar-CONH2] (Ac-[dR][Pen]NT[Trp(7-Me)]K(Ac)[Pen]Y(X3)[2Nal][Thp]EN[3Pal(5-Me)][Sar]-NH2; disulfide 2-7) |
| 2 nM | 157 A^2 | CC(=O)N(C)CCCC[C@H](NC(=O)C1(NC(=O)[C@H](Cc2ccc3ccccc3c2)NC(=O)[C@H](Cc2ccc(OCCOCCOCC[N+](C)(C)C)cc2)NC(=O)[C@H]2NC(=O)[C@H](CCCCNC(=O)CCOCCOCC[N+](C)(C)C)NC(=O)[C@H](Cc3c[nH]c4c(C)cccc34)NC(=O)[C@H]([C@@H](C)O)NC(=O)[C@H](CC(=O)N(C)C)NC(=O)[C@@H](NC(=O)CCOCCOCC[N+](C)(C)C)C(C)(C)SSC2(C)C)CCOCC1)C(=O)N[C@@H](CC(N)=O)C(=O)N[C@@H](Cc1cccnc1)C(=O)N(C)CC(=O)N(C)C [compound 544, cPEG3aCO-Pen(3)-N(N(Me)2)-T-7MeW-K(cPEG3aCO)-Pen(3)-APEG3F-2Nal-THP-K(NMeAc)-N-3Pya-Sar-CON(Me)2] ({Me3N+(CH2)2O(CH2)2O(CH2)2CO}-[Pen]D(NMe2)T[Trp(7-Me)]K(Me3N+(CH2)2O(CH2)2O(CH2)2CO)[Pen]Y(CH2CH2OCH2CH2OCH2CH2NMe3+)[2Nal][Thp][Lys(Me)](Ac)N[3Pal][Sar]-NMe2; disulfide 1-6) |
| 0.97 nM | 187 A^2 | CC(=O)NCCCC[C@@H]1NC(=O)[C@H](Cc2c[nH]c3c(C)cccc23)NC(=O)[C@H]([C@@H](C)O)NC(=O)[C@H](CC(N)=O)NC(=O)[C@@H](NC(=O)[C@@H](CCCNC(=N)N)NC(=O)CCOCCOCC[N+](C)(C)C)C(C)(C)SSC(C)(C)[C@@H](C(=O)N[C@@H](Cc2ccc(OCCN)cc2)C(=O)N[C@@H](Cc2ccc3ccccc3c2)C(=O)NC2(C(=O)N[C@@H](CCCCNC(C)=O)C(=O)N[C@@H](CC(N)=O)C(=O)N[C@@H](Cc3cncc(C)c3)C(=O)N(C)CC(N)=O)CCOCC2)NC1=O [compound 541, cPEG3aCO-r-Pen(3)-N-T-7MeW-K(Ac)-Pen(3)-AEF-2Nal-THP-K(Ac)-N-5MePyridinAla-Sar-CONH2] ({Me3N+(CH2)2O(CH2)2O(CH2)2CO}-[dR][Pen]NT[Trp(7-Me)]K(Ac)[Pen][AEF][2Nal][Thp]K(Ac)N[3Pal(5-Me)][Sar]-NH2; disulfide 2-7) |
